Holding throughout (test): growth of human tumour cells (NCI), 48 h
Assay [1] deals with A498.
The test system of assay [2] is HCT-116.
Assay [3] deals with 786-0.
Assay [4] deals with MDA-MB-435.
The test system of assay [5] is OVCAR-4.
Assay [6] deals with EKVX.
The test system of assay [7] is SN12C.
The test system of assay [8] is MOLT-4.
The subject of assay [9] is SK-MEL-5.
Assay [10] relates to SK-MEL-2.
The test system of assay [11] is OVCAR-3.
In assay [12] the test system is Hs-578T.
In assay [13] the test system is LOX IMVI.
Assay [14] relates to MDA-N.
Assay [15] concerns KM12.
In assay [16] the test system is UACC-257.
The test system of assay [17] is RPMI-8226.
Assay [18] deals with SK-MEL-28.
For assay [19], the system named is SF-539.
Assay [20] deals with BT-549.

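Briefly, cells in 96-well plates were exposed to five compound concentrations for 48 h, and endpoints were estimated by linear interpolation. Here, GI50 denotes the concentration required for 50% inhibition of growth.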 Calls of active or inactive are those of the source. Cut-off read from the data, not from the text of the source: active = GI50 up to about 1.1 µM and inactive = higher. Some results are limits rather than exact numbers.

Take `COc1cc2oc(=O)cc(C)c2c(OC)c1OC`: the GI50 in assay [1] was 30.8 µM (inactive); in [2], > 100 µM (inactive); in [3] it was > 100 µM (inactive); in [4], > 100 µM (inactive); in [5], > 100 µM (inactive); in assay [6], 87.9 µM (inactive). The GI50 in assay [7], in assay [8], in assay [9], in assay [10], in assay [11] and in assay [12] was > 100 µM (inactive) throughout. Besides, the GI50 in [13], in assay [14], in [15], in [16], in [17] and in assay [18] was > 100 µM (inactive) in each case.

Regarding `COc1ncnc2c(NC3OC(CO)C(O)C3O)ncnc12` (stereo not given), the GI50 in [1] is 0.411 µM (active); in assay [2] it was 0.0541 µM (active); in assay [3], 0.537 µM (active); in assay [4], 0.578 µM (active); in [5], 0.713 µM (active); in assay [6], 0.596 µM (active). The GI50 in assay [7] was 0.428 µM (active); in assay [8] it was 0.0471 µM (active); in [9] it was 1.19 µM (inactive); in [10], 2.47 µM (inactive); in [11] it was 0.733 µM (active); in assay [12], 1.03 µM (active). Also, the GI50 in assay [19] is 0.246 µM (active); in [13], 0.0445 µM (active); in assay [14], 0.274 µM (active); in assay [15], 0.458 µM (active); in assay [16] it was 1.6 µM (inactive); in [17], 0.371 µM (active). Besides, in assay [18], the GI50 is 6.89 µM (inactive).

Regarding `Cc1ccc2c(c1)C(=O)C1(C2)Cc2cccc(C)c2C1=O` (stereo not given), the GI50 in assay [1], in assay [2], in assay [3], in assay [4], in assay [5] and in assay [6] was > 100 µM (inactive) throughout. Also, the GI50 in [7], in assay [8], in assay [9], in [11], in assay [12] and in [19] was > 100 µM (inactive) in each case. Further, the GI50 in [13], in assay [14], in assay [15], in [16], in assay [17] and in assay [18] was > 100 µM (inactive) in each case.

On to `Cc1ccc(C(=O)Nc2ccc(S(=O)(=O)O)c3cc(S(=O)(=O)O)cc(S(=O)(=O)O)c23)cc1NC(=O)Nc1cc(C(=O)Nc2ccc(S(=O)(=O)O)c3cc(S(=O)(=O)O)cc(S(=O)(=O)O)c23)ccc1C`, for which the GI50 in assay [1], in [2], in assay [3], in assay [4], in [5] and in [7] was > 87.5 µM (inactive) each time. Further, the GI50 in assay [8], in [9], in assay [10], in [11], in assay [20] and in assay [13] was > 87.5 µM (inactive) each time. Further, the GI50 in [14], in assay [16], in [17] and in [18] was > 87.5 µM (inactive) each time.

Regarding `CS(=O)(=O)N1CC(CCl)c2ccc(NCCN)cc21` (stereo not given), the GI50 in assay [1] was 69 µM (inactive); in [2] it was 83.2 µM (inactive); in assay [3] it was 18.7 µM (inactive); in assay [4] it was > 100 µM (inactive); in [5] it was 58.9 µM (inactive); in assay [6] it was 47.9 µM (inactive). Also, the GI50 in assay [7] was > 100 µM (inactive); in assay [8] it was > 100 µM (inactive); in assay [9] it was > 100 µM (inactive); in assay [10], > 100 µM (inactive); in [11], > 100 µM (inactive); in [12], 27.2 µM (inactive). The GI50 in [19] was 72.6 µM (inactive); in assay [13] it was > 100 µM (inactive); in assay [14], > 100 µM (inactive); in [15] it was > 100 µM (inactive); in [16], > 100 µM (inactive); in assay [17], > 100 µM (inactive). In addition, the GI50 in [18] was > 100 µM (inactive).

As to `Cc1nc(=O)c2cc(CN(C)c3ccc(C(=O)N[C@@H](CCC(=O)O)C(=O)O)s3)ccc2[nH]1` [RALTITREXED], the GI50 in [2] was 0.264 µM (active); in [3], 0.0438 µM (active); in assay [4], > 100 µM (inactive); in assay [5] it was > 100 µM (inactive); in assay [6], > 100 µM (inactive); in [7] it was 0.65 µM (active). Moreover, the GI50 in [8] is 0.0977 µM (active); in assay [10] it was > 100 µM (inactive); in [11] it was > 100 µM (inactive); in assay [20], 71.4 µM (inactive); in assay [12], > 100 µM (inactive); in assay [19] it was 84.7 µM (inactive). In addition, the GI50 in [13] was 0.0303 µM (active); in [15], > 100 µM (inactive); in [16], > 100 µM (inactive); in [17], 0.0834 µM (active); in assay [18], > 100 µM (inactive).

As for `COC(=O)C1=C(C(=O)OC)C2CCC1CC2=O` (stereo not given), the GI50 in assay [1], in assay [2], in assay [3], in assay [4], in assay [5] and in assay [6] was > 100 µM (inactive) in each case. The GI50 in assay [7] was > 100 µM (inactive); in assay [8], 45.5 µM (inactive); in assay [9] it was > 100 µM (inactive); in assay [10] it was > 100 µM (inactive); in assay [11], > 100 µM (inactive); in assay [20], > 100 µM (inactive). The GI50 in assay [19] is > 100 µM (inactive); in assay [13] it was > 100 µM (inactive); in assay [14], > 100 µM (inactive); in assay [15] it was 65.6 µM (inactive); in [16], > 100 µM (inactive); in assay [17], > 100 µM (inactive). The GI50 in assay [18] was > 100 µM (inactive).

As for `N#Cc1nc(C2=C(Cl)c3ccccc3OC2)[nH]c1C#N`, the GI50 in [1] was 24.3 µM (inactive); in assay [3], 32.1 µM (inactive); in assay [5], 53.3 µM (inactive); in [6], 31.5 µM (inactive); in assay [7], 27.5 µM (inactive); in assay [8] it was 12.9 µM (inactive). For the same molecule, the GI50 in assay [9] is 19.1 µM (inactive); in assay [11], 27.7 µM (inactive); in assay [20] it was 18.9 µM (inactive); in assay [12] it was 38.3 µM (inactive); in [19], 17.1 µM (inactive); in assay [13], 16.9 µM (inactive). For the same molecule, the GI50 in assay [15] is 26.1 µM (inactive); in [17], 24.4 µM (inactive); in [18], 23.2 µM (inactive).

With `CCN1CC2=C(NC(=S)NC2c2cc(OC)c(OC)c(OC)c2)/C(=C/c2cc(OC)c(OC)c(OC)c2)C1` (stereo not given), the GI50 in [1] was 27.3 µM (inactive); in assay [2], 27.7 µM (inactive); in assay [3], 28.4 µM (inactive); in [4], 28.3 µM (inactive); in [5], 75.2 µM (inactive); in assay [6], 15 µM (inactive). Besides, the GI50 in assay [8] is 20.9 µM (inactive); in assay [9], 13.2 µM (inactive); in assay [10], 70.8 µM (inactive); in [11] it was 67.5 µM (inactive); in [20], 46.5 µM (inactive); in assay [13], 37.2 µM (inactive). Further, the GI50 is 25.8 µM (inactive) in assay [14]; 98.6 µM (inactive) in assay [15]; 59 µM (inactive) in assay [16]; 14.1 µM (inactive) in assay [17]; 13.7 µM (inactive) in assay [18].

Turning to `N#C/C(C(=O)Nc1ccc(Cl)cc1)=C(/N)N1CCCC1`, the GI50 in assay [1], in assay [2], in [3], in assay [4], in assay [6] and in [7] was > 100 µM (inactive) each time. Also, the GI50 in assay [8], in assay [9], in [10], in assay [11], in assay [20] and in [19] was > 100 µM (inactive) in each case. Also, the GI50 in assay [13], in [14], in [15], in assay [16], in assay [17] and in assay [18] was > 100 µM (inactive) throughout.

Consider `C=C1c2nc3ccccc3n2C=C(c2ccc(Cl)cc2)N1c1ccc(OCCN2CCCCC2)cc1`, for which the GI50 is > 45 µM (inactive) in assay [1]; > 45 µM (inactive) in assay [2]; > 45 µM (inactive) in assay [3]; 1.59 µM (inactive) in assay [4]; > 45 µM (inactive) in assay [5]; > 45 µM (inactive) in [6]. Besides, the GI50 in assay [7], in [8], in assay [9], in assay [10], in assay [11] and in assay [20] was > 45 µM (inactive) in each case. Further, the GI50 in [19] is > 100 µM (inactive); in [13], > 45 µM (inactive); in [14], 6.32 µM (inactive); in assay [15], > 45 µM (inactive); in assay [16] it was 0.843 µM (active); in assay [17] it was 2.43 µM (inactive). Further, the GI50 in [18] was > 45 µM (inactive).

Source of the values: ChEMBL document CHEMBL1201862, “PubChem BioAssay data set” (2004).
